Data from patent publication US6875451B2, “Compositions and methods for the treatment of primary and metastatic neoplastic diseases using arsenic compounds” (PolaRx Biopharmaceuticals Inc., priority 1997, dated 2005).

Experiments:
Format in all cases: cell-based
MDA-MB-435 = assay: SRB growth assay, 2 days exposure, breast cancer
Procedure: (§1) Arsenic trioxide (1 mg/ml, 10 mg/ampoule, manufactured by Taylor Pharmaceuticals, Decatur, Ill.) was tested at five concentrations each at 10-fold dilutions, i.e., 10^−5, 10^−6, 10^−7, 10^−8 and 10^−9 μg/ml.
(§2) The in vitro tests were performed by incubating the test cells in the presence of the indicated concentration of arsenic trioxide under standard culture conditions for a designated period of time, which is followed by a sulforhodamine B (SRB) protein assay to estimate cell viability or growth. The cell lines are organized into subpanels according to the origin of the cell lines, e.g., leukemia, breast cancer, etc. A description of the cell lines and method of testing is described in Monk et al. (1997, Anticancer Drug Des. 12:533-41) and Weinstein et al., (1997, Science 275:343-9), which are incorporated herein in their entirety.
(§3) The measurement of an effect is expressed in Percentage Growth (PG). The measured effect of the compound on a cell line is calculated according to one or the other of the following two expressions: If (Mean ODtest−Mean ODzero)≧0. then PG=100×(Mean ODtest−Mean ODzero)/(Mean ODctrl−Mean ODzero) If (Mean ODtest−Mean ODzero)<0. then PG=100×(Mean ODtest−Mean ODzero)/(Mean ODzero where: • Mean ODzero=the average of optical density measurements of SRB-derived color just before exposure of cells to the test compounds; • Mean ODtest=the average of optical density measurements of SRB-derived color after exposure of cells to the test compound for a designated period of time; and • Mean ODctrl=the average of optical density measurements of SRB-derived color after with no exposure of cells to the test compound for a designated period of time
(§4) The first two columns describe the subpanel (e.g., leukemia) and cell line (e.g., CCRF-CEM) involved. The next two columns list the Mean ODzero and Mean ODctrl; the next five columns list the Mean ODtest for each of five different concentrations. Each concentration is expressed as the log10 (molar or μg/ml). The next five columns list the calculated PGs for each concentration. The response parameters GI50, TGI and LC50 are interpolated values representing the concentrations at which the PG is +50, 0, and −50, respectively. Sometimes these response parameters cannot be obtained by interpolation. If, for instance, all of the PGs in a given row exceed +50, then none of the three parameters can be obtained by interpolation. In such a case, the value given for each response parameter is the highest concentration tested and is preceded by a “>” sign. This practice is extended similarly to the other possible situations where a response parameter cannot be obtained by interpolation.
(§5) In the first set, the cells from 56 different cancer cell lines were exposed to five concentrations of arsenic trioxide continuously for two days prior to performing the SRB assay. In the second set, the cells from 50 different cell lines (a subset of the first 56 cell lines, plus the renal cancer cell line 786-0) were exposed continuously for six days prior to the SRB assay.

T-47D = assay: SRB growth assay, 2 days exposure, breast cancer
Procedure: as §1, §2, §3, §4, §5

LOX IMVI = assay: SRB growth assay, 6 days exposure, melanoma; conditions: LOX 1MVI
Procedure: as §1, §2, §3, §4, §5

MALMI-3M = assay: SRB growth assay, 6 days exposure, melanoma
Procedure: as §1, §2, §3, §4, §5

SK-MEL-28 = assay: SRB growth assay, 6 days exposure, melanoma; conditions: SK-MEL-28, 6 days
Procedure: as §1, §2, §3, §4, §5

SK-MEL-2 = assay: SRB growth assay, 6 days exposure, melanoma; conditions: SK-MEL-2, 6 days
Procedure: as §1, §2, §3, §4, §5

SK-MEL-5 = assay: SRB growth assay, 6 days exposure, melanoma; conditions: SK-MEL-5, 6 days
Procedure: as §1, §2, §3, §4, §5

UACC-257 = assay: SRB growth assay, 6 days exposure, melanoma; conditions: UACC-257, 6 days
Procedure: as §1, §2, §3, §4, §5

UACC-62 = assay: SRB growth assay, 6 days exposure, melanoma; conditions: UACC-62, 6 days
Procedure: as §1, §2, §3, §4, §5

## arsenic trioxide
MDA-MB-435
  TGI: >0.0126 ng/mL
MDA-MB-435; log10 conc −4.9
  Percent Growth: 21%
MDA-MB-435; log10 conc −5.9
  Percent Growth: 94%
MDA-MB-435; log10 conc −6.9
  Percent Growth: 105%
MDA-MB-435; log10 conc −7.9
  Percent Growth: 93%
MDA-MB-435; log10 conc −8.9
  Percent Growth: 94%
T-47D
  TGI: 0.00986 ng/mL
T-47D; log10 conc −4.9
  Percent Growth: −10%
T-47D; log10 conc −5.9
  Percent Growth: 81%
T-47D; log10 conc −6.9
  Percent Growth: 133%
T-47D; log10 conc −7.9
  Percent Growth: 109%
T-47D; log10 conc −8.9
  Percent Growth: 88%
LOX IMVI
  TGI: 1.32E−07
LOX IMVI; Log 10 Concentration −4.9
  Mean Optical Densities: −0.001
  Percent Growth: −100%
LOX IMVI; Log 10 Concentration −5.9
  Mean Optical Densities: 0.002
  Percent Growth: −88%
LOX IMVI; Log 10 Concentration −6.9
  Mean Optical Densities: 0.053
  Percent Growth: 2%
LOX IMVI; Log 10 Concentration −7.9
  Mean Optical Densities: 1.666
  Percent Growth: 77%
LOX IMVI; Log 10 Concentration −8.9
  Mean Optical Densities: 2.000
  Percent Growth: 93%
MALMI-3M
  TGI: 2.78E−06
MALMI-3M; Log 10 Concentration −4.9
  Mean Optical Densities: 0.005
  Percent Growth: −96%
MALMI-3M; Log 10 Concentration −5.9
  Mean Optical Densities: 0.383
  Percent Growth: 50%
MALMI-3M; Log 10 Concentration −6.9
  Mean Optical Densities: 0.823
  Percent Growth: 132%
MALMI-3M; Log 10 Concentration −7.9
  Mean Optical Densities: 0.595
  Percent Growth: 90%
MALMI-3M; Log 10 Concentration −8.9
  Mean Optical Densities: 0.702
  Percent Growth: 110%
SK-MEL-28
  TGI: 1.86E−06
SK-MEL-28; Log 10 Concentration −4.9
  Percent Growth: −100%
SK-MEL-28; Log 10 Concentration −5.9
  Mean Optical Densities: 0.488
  Percent Growth: 20%
SK-MEL-28; Log 10 Concentration −6.9
  Mean Optical Densities: 1.797
  Percent Growth: 88%
SK-MEL-28; Log 10 Concentration −7.9
  Mean Optical Densities: 1.906
  Percent Growth: 94%
SK-MEL-28; Log 10 Concentration −8.9
  Mean Optical Densities: 2.012
  Percent Growth: 99%
SK-MEL-2
  TGI: 5.63E−07
SK-MEL-2; Log 10 Concentration −4.9
  Percent Growth: −100%
SK-MEL-2; Log 10 Concentration −5.9
  Mean Optical Densities: 0.128
  Percent Growth: −40%
SK-MEL-2; Log 10 Concentration −6.9
  Mean Optical Densities: 0.426
  Percent Growth: 74%
SK-MEL-2; Log 10 Concentration −7.9
  Mean Optical Densities: 0.462
  Percent Growth: 87%
SK-MEL-2; Log 10 Concentration −8.9
  Mean Optical Densities: 0.491
  Percent Growth: 97%
SK-MEL-5
  TGI: 4.07E−06
SK-MEL-5; Log 10 Concentration −4.9
  Mean Optical Densities: 0.013
  Percent Growth: −93%
SK-MEL-5; Log 10 Concentration −5.9
  Mean Optical Densities: 1.846
  Percent Growth: 96%
SK-MEL-5; Log 10 Concentration −6.9
  Mean Optical Densities: 1.929
  Percent Growth: 101%
SK-MEL-5; Log 10 Concentration −7.9
  Mean Optical Densities: 1.864
  Percent Growth: 97%
SK-MEL-5; Log 10 Concentration −8.9
  Mean Optical Densities: 1.935
  Percent Growth: 102%
UACC-257
  TGI: 5.83E−06
UACC-257; Log 10 Concentration −4.9
  Mean Optical Densities: 0.039
  Percent Growth: −27%
UACC-257; Log 10 Concentration −5.9
  Mean Optical Densities: 0.504
  Percent Growth: 54%
UACC-257; Log 10 Concentration −6.9
  Mean Optical Densities: 0.832
  Percent Growth: 94%
UACC-257; Log 10 Concentration −7.9
  Mean Optical Densities: 0.857
  Percent Growth: 97%
UACC-257; Log 10 Concentration −8.9
  Mean Optical Densities: 0.872
  Percent Growth: 99%
UACC-257; read-out: LC50 (the source's name)
  CC50: > 12.6 µM
UACC-62
  TGI: 2.27E−06
UACC-62; Log 10 Concentration −4.9
  Mean Optical Densities: 0.001
  Percent Growth: −98%
UACC-62; Log 10 Concentration −5.9
  Mean Optical Densities: 0.539
  Percent Growth: 34%
UACC-62; Log 10 Concentration −6.9
  Mean Optical Densities: 1.409
  Percent Growth: 92%
UACC-62; Log 10 Concentration −7.9
  Mean Optical Densities: 1.460
  Percent Growth: 95%
UACC-62; Log 10 Concentration −8.9
  Mean Optical Densities: 1.546
  Percent Growth: 101%
